Laboratory results as given in PMC11873939, “Target Identification with Live-Cell Photoaffinity Labeling and Mechanism of Action Elucidation of ARN23765, a Highly Potent CFTR Corrector” (Journal of Medicinal Chemistry, 2025).

Molecular target: T1, F508del-CFTR (Homo sapiens, UniProt P13569, DEL508-508)
T1 construct: expressed in transfected cells
Assay: Live-cell photoaffinity labeling, streptavidin pull-down and CFTR Western blot
Format: binding
Conditions: F508del-CFTR CFBE41o- cells, 25-fold excess (25 μM) competitor 30 min before probe (1 μM)
Description: Wt-CFTR or F508del-CFTR CFBE41o- cells were plated at 2–2.5 × 10^6 cells/plate in 6 cm diameter dishes. The day after, sodium butyrate (5–2.5 mM) was added for 24 h; next, the medium was exchanged with fresh one supplemented with DMSO (0.25%) (276855, Sigma-Aldrich) or probe (1 μM). For competition experiments, a 25-fold excess of ARN23765 (25 μM) was added 30 min before probe’s addition. For the analysis of “corrected” F508del-CFTR, F508del-CFTR CFBE41o- cells were kept at 27 °C for 24 h before adding the probes. Probes were incubated with cells for 2 h, then the medium was removed, and plates were washed twice with phosphate buffer saline (PBS). Cells were placed on ice and irradiated for 5 min at a wavelength of 365 nm using a 100-W UV-lamp (95–0127–02 model B100-AP, Analytik Jena). Cells were harvested with trypsin (T4299, Sigma-Aldrich), washed with PBS (D8537, Sigma-Aldrich), and pellets were stored at −80 °C until used, centrifuged at 300 × g and washed twice with PBS (D8537, Sigma-Aldrich). Pellets from in-cell photoaffinity labeling with alkyne-probes (PAP_1 and PAP_2) were lysed in PBS plus protease inhibitor cocktail (78429, Thermo Scientific) by sonication. The suspension was centrifuged at 800 × g for 20 min at 4 °C to discard nuclei and cell debris. The total extracted proteins were quantified with the bicinchoninic acid (BCA) protein assay (23225, Thermo Scientific) and subjected to CuAAC before proceeding with pull-down. Pellets from in-cell photoaffinity labeling with desthio-biotinylated (DS-biot) probes (PAP_1 DS-biot, PAP_2 DS-biot, PAP_N1 DS-biot, PAP_N2 DS-biot) were lysed with a modified RIPA buffer [50 mM tris-HCl pH 8, 150 mM NaCl, 0.5% Triton-X100, 0.2% SDS, 1 mM ethylenediaminetetraacetic acid (EDTA)] supplemented with protease inhibitor cocktail and centrifuged at 10.000× g for 10 min. The protein content in the supernatant was quantified by BCA protein assay. Protein lysate (200 μg) was diluted to 800 μL and the Triton-X100 percentage was reduced to 0.2% before proceeding to pull-down.
High capacity streptavidin agarose (20359, Thermo Scientific) (25 μL) was added to PAP-labeled cell extracts for 1 h at room temperature under gentle rotation. The streptavidin beads were collected by centrifugation and washed four times with lysis buffer. Resin-bound proteins were eluted with 45 μL of 5 mM biotin (B4501, Sigma-Aldrich) for 30 min at room temperature and analyzed with Western blot for CFTR expression. Input samples (4 and 8 μg for wt-CFTR and F508del-CFTR CFBE41o-, respectively) were collected immediately before incubation with streptavidin resin. Input and pulled-down samples were analyzed with WB as described in the supplementary methods.

T1 sequence (P13569 with tags, fused parts or gaps DEL508-508): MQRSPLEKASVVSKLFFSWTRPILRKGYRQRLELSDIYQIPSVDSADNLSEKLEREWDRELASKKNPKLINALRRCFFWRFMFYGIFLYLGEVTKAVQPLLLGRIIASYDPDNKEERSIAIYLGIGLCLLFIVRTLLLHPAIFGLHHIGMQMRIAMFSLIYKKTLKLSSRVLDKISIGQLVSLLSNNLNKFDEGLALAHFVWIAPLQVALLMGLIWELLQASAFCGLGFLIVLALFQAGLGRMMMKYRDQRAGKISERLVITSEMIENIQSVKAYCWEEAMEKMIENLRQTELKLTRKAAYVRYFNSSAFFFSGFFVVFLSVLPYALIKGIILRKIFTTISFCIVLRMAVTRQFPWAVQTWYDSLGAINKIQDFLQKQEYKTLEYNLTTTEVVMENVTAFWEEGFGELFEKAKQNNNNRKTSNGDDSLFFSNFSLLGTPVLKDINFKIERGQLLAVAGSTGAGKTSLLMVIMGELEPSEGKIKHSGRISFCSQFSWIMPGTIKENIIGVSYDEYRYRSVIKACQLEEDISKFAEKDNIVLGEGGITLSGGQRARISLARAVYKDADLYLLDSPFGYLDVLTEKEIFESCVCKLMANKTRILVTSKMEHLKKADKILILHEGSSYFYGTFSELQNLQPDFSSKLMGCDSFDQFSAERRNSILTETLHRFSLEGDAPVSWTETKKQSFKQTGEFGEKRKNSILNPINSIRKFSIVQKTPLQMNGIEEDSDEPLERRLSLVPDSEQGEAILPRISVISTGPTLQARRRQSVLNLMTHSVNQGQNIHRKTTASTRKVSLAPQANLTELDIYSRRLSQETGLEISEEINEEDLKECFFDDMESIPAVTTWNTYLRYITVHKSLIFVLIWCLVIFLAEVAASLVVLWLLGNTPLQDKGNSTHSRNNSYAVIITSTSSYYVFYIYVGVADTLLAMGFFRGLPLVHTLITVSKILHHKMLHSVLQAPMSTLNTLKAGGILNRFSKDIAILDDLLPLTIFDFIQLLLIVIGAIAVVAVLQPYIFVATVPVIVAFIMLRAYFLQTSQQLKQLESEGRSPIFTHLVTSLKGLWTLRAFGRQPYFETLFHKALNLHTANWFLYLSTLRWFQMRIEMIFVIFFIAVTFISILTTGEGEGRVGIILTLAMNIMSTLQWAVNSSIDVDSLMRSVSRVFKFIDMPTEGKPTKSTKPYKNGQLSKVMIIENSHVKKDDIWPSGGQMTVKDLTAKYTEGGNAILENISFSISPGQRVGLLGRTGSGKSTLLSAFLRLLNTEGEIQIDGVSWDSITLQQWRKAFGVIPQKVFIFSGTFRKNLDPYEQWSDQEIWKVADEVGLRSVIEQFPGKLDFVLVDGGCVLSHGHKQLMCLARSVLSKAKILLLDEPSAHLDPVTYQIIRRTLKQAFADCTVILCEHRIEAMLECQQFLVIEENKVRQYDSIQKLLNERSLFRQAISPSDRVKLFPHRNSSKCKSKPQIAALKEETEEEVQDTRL

CN(C(=O)c1cccc(-n2nc(C(F)(F)F)c3c2[C@@H](Oc2ccc(C(=O)O)cc2)CCC3)c1)c1ccc2c(c1)OC(F)(F)O2 [ARN23765]
Competition: CFTR recovered in pull-down by PAP_1 DS-biot or PAP_2 DS-biot after preincubation with competitor: markedly reduced amount of the recovered protein
